Laboratory results as given in ChEMBL document CHEMBL1201862, “PubChem BioAssay data set” (2004).
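How tested: cells in 96-well plates exposed to compound for 48 hours at five concentrations. GI50: concentration for 50% inhibition of growth.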 The source made the active and inactive calls. No stated cut-off is given here; in the data, active = GI50 up to about 1.1 µM and inactive = higher.

Key:
Assay in all cases: NCI-60 cell line screen, 48 h
[1] = test system: 786-0
[2] = test system: A498
[3] = test system: A549
[4] = test system: ACHN
[5] = test system: CCRF-CEM
[6] = test system: COLO 205
[7] = test system: DLD-1
[8] = test system: DMS-273
[9] = test system: EKVX
[10] = test system: HCC 2998
[11] = test system: HCT-116
[12] = test system: HCT-15
[13] = test system: HL-60
[14] = test system: HOP-62
[15] = test system: HT-29
[16] = test system: IGROV-1
[17] = test system: K562
[18] = test system: LOX IMVI
[19] = test system: LXFL 529
[20] = test system: M19-MEL
[21] = test system: MOLT-4
[22] = test system: Malme-3M
[23] = test system: NCI-H23
[24] = test system: NCI-H460
[25] = test system: OVCAR-4
[26] = test system: OVCAR-8
[27] = test system: RPMI-8226
[28] = test system: SF-539
[29] = test system: SK-MEL-28
[30] = test system: SK-MEL-2
[31] = test system: SK-MEL-5
[32] = test system: SN12C
[33] = test system: SNB-19
[34] = test system: SNB-75
[35] = test system: SR
[36] = test system: SW-620
[37] = test system: TK-10
[38] = test system: U-251
[39] = test system: UACC-257
[40] = test system: UACC-62
[41] = test system: UO-31
[42] = test system: XF498
[43] = test system: BT-549
[44] = test system: CAKI-1
[45] = test system: DU-145
[46] = test system: HOP-92
[47] = test system: Hs-578T
[48] = test system: KM12
[49] = test system: M14
[50] = test system: MCF7
[51] = test system: MDA-MB-231
[52] = test system: MDA-MB-435
[53] = test system: MDA-N
[54] = test system: NCI-H226
[55] = test system: NCI-H522
[56] = test system: NCI/ADR-RES
[57] = test system: OVCAR-3
[58] = test system: OVCAR-5
[59] = test system: PC-3
[60] = test system: RXF 393
[61] = test system: SF-268
[62] = test system: SF-295
[63] = test system: SK-OV-3
[64] = test system: T47D

## COc1ccccc1-c1cc(O)c2cc3c(cc2n1)OCO3
[1]
  GI50: 31.9 µM (inactive)
[2]
  GI50: 11.9 µM (inactive)
[3]
  GI50: 35.6 µM (inactive)
[4]
  GI50: 83.8 µM (inactive)
[5]
  GI50: 18.7 µM (inactive)
[6]
  GI50: 17.2 µM (inactive)
[7]
  GI50: 40.2 µM (inactive)
[8]
  GI50: 19.6 µM (inactive)
[9]
  GI50: > 100 µM (inactive)
[10]
  GI50: 40.1 µM (inactive)
[11]
  GI50: 28.6 µM (inactive)
[12]
  GI50: 12.3 µM
[13]
  GI50: 19.5 µM (inactive)
[14]
  GI50: 14.3 µM (inactive)
[15]
  GI50: 28.4 µM (inactive)
[16]
  GI50: 35.2 µM (inactive)
[17]
  GI50: 8.65 µM (inactive)
[18]
  GI50: 52.4 µM (inactive)
[19]
  GI50: 48.9 µM (inactive)
[20]
  GI50: 32.4 µM (inactive)
[21]
  GI50: 23.2 µM (inactive)
[22]
  GI50: 6.82 µM (inactive)
[23]
  GI50: 54.6 µM (inactive)
[24]
  GI50: 30.3 µM (inactive)
[25]
  GI50: 25.5 µM (inactive)
[26]
  GI50: 28.3 µM (inactive)
[27]
  GI50: 38.5 µM (inactive)
[28]
  GI50: 25.1 µM (inactive)
[29]
  GI50: > 100 µM (inactive)
[30]
  GI50: 40.8 µM (inactive)
[31]
  GI50: 5.19 µM (inactive)
[32]
  GI50: 45.2 µM (inactive)
[33]
  GI50: 45.3 µM (inactive)
[34]
  GI50: 22.1 µM (inactive)
[35]
  GI50: 29.3 µM (inactive)
[36]
  GI50: 17.7 µM (inactive)
[37]
  GI50: > 100 µM (inactive)
[38]
  GI50: > 100 µM (inactive)
[39]
  GI50: 80.9 µM (inactive)
[40]
  GI50: 31.6 µM (inactive)
[41]
  GI50: 65.2 µM (inactive)
[42]
  GI50: 21.9 µM (inactive)

## COC(=O)c1ccc([N+](=O)[O-])c(O)c1
[1]
  GI50: > 100 µM (inactive)
[2]
  GI50: > 100 µM (inactive)
[3]
  GI50: > 100 µM (inactive)
[4]
  GI50: > 100 µM (inactive)
[43]
  GI50: > 100 µM (inactive)
[44]
  GI50: > 100 µM (inactive)
[5]
  GI50: > 100 µM (inactive)
[6]
  GI50: > 100 µM (inactive)
[45]
  GI50: > 100 µM (inactive)
[9]
  GI50: > 100 µM (inactive)
[10]
  GI50: > 100 µM (inactive)
[11]
  GI50: > 100 µM (inactive)
[12]
  GI50: > 100 µM
[13]
  GI50: > 100 µM (inactive)
[14]
  GI50: > 100 µM (inactive)
[46]
  GI50: > 100 µM (inactive)
[15]
  GI50: > 100 µM (inactive)
[47]
  GI50: > 100 µM (inactive)
[16]
  GI50: > 100 µM (inactive)
[17]
  GI50: > 100 µM (inactive)
[48]
  GI50: > 100 µM (inactive)
[18]
  GI50: > 100 µM (inactive)
[49]
  GI50: > 100 µM (inactive)
[50]
  GI50: > 100 µM (inactive)
[51]
  GI50: > 100 µM (inactive)
[52]
  GI50: 8.55 µM (inactive)
[53]
  GI50: > 100 µM (inactive)
[21]
  GI50: > 100 µM (inactive)
[22]
  GI50: > 100 µM (inactive)
[54]
  GI50: > 100 µM (inactive)
[23]
  GI50: > 100 µM (inactive)
[24]
  GI50: > 100 µM (inactive)
[55]
  GI50: > 100 µM (inactive)
[56]
  GI50: > 100 µM (inactive)
[57]
  GI50: > 100 µM (inactive)
[25]
  GI50: 19.9 µM (inactive)
[58]
  GI50: > 100 µM (inactive)
[26]
  GI50: > 100 µM (inactive)
[59]
  GI50: > 100 µM (inactive)
[27]
  GI50: > 100 µM (inactive)
[60]
  GI50: > 100 µM (inactive)
[61]
  GI50: > 100 µM (inactive)
[62]
  GI50: > 100 µM (inactive)
[28]
  GI50: > 100 µM (inactive)
[29]
  GI50: > 100 µM (inactive)
[30]
  GI50: > 100 µM (inactive)
[31]
  GI50: > 100 µM (inactive)
[63]
  GI50: > 100 µM (inactive)
[32]
  GI50: > 100 µM (inactive)
[33]
  GI50: > 100 µM (inactive)
[34]
  GI50: > 100 µM (inactive)
[35]
  GI50: > 100 µM (inactive)
[36]
  GI50: > 100 µM (inactive)
[64]
  GI50: > 100 µM (inactive)
[37]
  GI50: > 100 µM (inactive)
[38]
  GI50: > 100 µM (inactive)
[39]
  GI50: > 100 µM (inactive)
[40]
  GI50: > 100 µM (inactive)
[41]
  GI50: > 100 µM (inactive)
